Laboratory results published in patent US7179804B2, “Tachykinin receptor antagonists” (Eli Lilly and Company, priority 2002, dated 2007).

First: CC(C)(O)c1onc(-c2ccccc2Cl)c1C(=O)c1nnn(Cc2cc(C(F)(F)F)cc(C(F)(F)F)c2)c1N1CCOCC1 [Example 73]
Second: CC(O)c1onc(-c2ccccc2Cl)c1C(=O)c1nnn(Cc2cc(C(F)(F)F)cc(C(F)(F)F)c2)c1N1CCOCC1 (centres unmarked) [Example 81, [1-(3,5-bis-trifluoromethyl-benzyl)-5-morpholin-4-yl-1H-[1,2,3]triazol-4-yl]-[3-(2-chloro-phenyl)-5-(1-hydroxy-ethyl)-isoxazol-4-yl]-methanone]
The melting point of the first is higher: 188 °C for the first, 145 to 146 °C for the second.

Going from `CC(C)(O)c1onc(-c2ccccc2Cl)c1C(=O)c1nnn(Cc2cc(C(F)(F)F)cc(C(F)(F)F)c2)c1-c1cccnc1` [Example 79, [1-(3,5-bis-trifluoromethyl-benzyl)-5-pyridin-3-yl-1H-[1,2,3]triazol-4-yl]-[3-(2-chloro-phenyl)-5-(1-hydroxy-1-methyl-ethyl)-isoxazol-4-yl]-methanone] to `CC(C)(O)c1onc(-c2ccccc2Cl)c1C(=O)c1nnn(Cc2cc(F)cc(C(F)(F)F)c2)c1-c1cccnc1` [Example 211, [3-(2-chloro-phenyl)-5-(1-hydroxy-1-methyl-ethyl)-isoxazol-4-yl]-[1-(3-fluoro-5-trifluoromethyl-benzyl)-5-pyridin-3-yl-1H-[1,2,3]triazol-4-yl]-methanone], the melting point rises from 105 °C to 180 °C.

In the case of `O=C(c1nnn(Cc2cc(C(F)(F)F)cc(C(F)(F)F)c2)c1-n1ccnc1)c1c(CO)noc1-c1ccccc1Cl` [Example 269, [1-(3,5-bistrifluoromethylbenzyl)-5-imidazol-1-yl-1H-[1,2,3]triazol-4-yl]-[5-(2-chlorophenyl)-3-hydroxymethyl-isoxazol-4-yl]-methanone], the melting point is reported as 148.8 °C.
